In patent US20240307362A1 (priority 2019, published 2024):
Like-named read-outs stand apart in the source and are kept apart here.

Legend:
[1] = molecular target: mutEGFR (D770_N771insSVD) (Homo sapiens (Human), UniProt P00533, INS770SVD); assay: biochemical; conditions: mutEGFR (D770_N771 insSVD) at 2 mM ATP IC50, 2 mM ATP
[2] = molecular target: human Bub1 (Homo sapiens (Human), UniProt O43683); assay: Bub1 high ATP kinase assay (TR-FRET); type: biochemical; conditions: read-out: Bub1 high ATP (2 mM) IC50; 2 mM ATP
Chain of human Bub1 (O43683 704-1085): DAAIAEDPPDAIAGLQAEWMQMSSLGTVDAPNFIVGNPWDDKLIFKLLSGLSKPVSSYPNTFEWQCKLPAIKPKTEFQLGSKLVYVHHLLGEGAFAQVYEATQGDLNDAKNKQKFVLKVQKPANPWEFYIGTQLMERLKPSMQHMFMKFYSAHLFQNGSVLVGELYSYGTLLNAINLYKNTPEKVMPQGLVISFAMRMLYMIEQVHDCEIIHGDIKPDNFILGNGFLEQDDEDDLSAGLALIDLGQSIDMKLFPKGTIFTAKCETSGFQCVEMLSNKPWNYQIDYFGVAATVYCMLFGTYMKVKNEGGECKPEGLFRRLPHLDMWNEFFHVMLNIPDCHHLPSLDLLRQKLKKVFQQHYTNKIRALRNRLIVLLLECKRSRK
From the text: Bub1-inhibitory activity of compounds of the present invention at a high ATP concentration was quantified employing the Bub1 TR-FRET high ATP kinase assay as described in the following paragraphs.
N-terminally His6-tagged recombinant catalytic domain of human Bub1 (amino acids 704-1085), expressed in insect cells (Hi5) and purified by Ni-NTA affinity chromatography and subsequent size exclusion chromatography, was used as enzyme.

[3] = test system: Ba/F3-EGFR-insSVD; assay: Ba/F3 cell survival assay, EGFR-insSVD; type: cell-based
Summary of the method: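 Ba/F3 cells stably expressing WT EGFR or EGFR-insSVD via retrovirus, grown without IL-3 on 10 ng/mL EGF, plated at 4000 cells/well. Compound exposure 48 h at 37 °C; viability read by CellTiter-Glo luminescence.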

[4] = test system: Ba/F3-EGFR-WT; assay: Ba/F3 cell survival assay, WT EGFR; type: cell-based
[5] = Mus musculus, BaF3, 48 h, read-out: BA/F3 (insSVD) IC50, cell viability, Cell Titer-Glo, 48 h, with 10 ng/mL EGF, without IL-3
[6] = Mus musculus, BaF3, 48 h, read-out: BA/F3 (wild type) IC50, cell viability, Cell Titer-Glo, 48 h, with 10 ng/mL EGF, without IL-3
[7] = read-out: BA/F3 (insSVD) IC50, cell viability, Cell Titer-Glo, 48 h, with 10 ng/mL EGF, without IL-3
[8] = read-out: BA/F3 (wild type) IC50, cell viability, Cell Titer-Glo, 48 h, with 10 ng/mL EGF, without IL-3

Chain of mutEGFR (D770_N771insSVD) (P00533 other isoform, or with tags, fused parts or gaps ins SVD behind 770): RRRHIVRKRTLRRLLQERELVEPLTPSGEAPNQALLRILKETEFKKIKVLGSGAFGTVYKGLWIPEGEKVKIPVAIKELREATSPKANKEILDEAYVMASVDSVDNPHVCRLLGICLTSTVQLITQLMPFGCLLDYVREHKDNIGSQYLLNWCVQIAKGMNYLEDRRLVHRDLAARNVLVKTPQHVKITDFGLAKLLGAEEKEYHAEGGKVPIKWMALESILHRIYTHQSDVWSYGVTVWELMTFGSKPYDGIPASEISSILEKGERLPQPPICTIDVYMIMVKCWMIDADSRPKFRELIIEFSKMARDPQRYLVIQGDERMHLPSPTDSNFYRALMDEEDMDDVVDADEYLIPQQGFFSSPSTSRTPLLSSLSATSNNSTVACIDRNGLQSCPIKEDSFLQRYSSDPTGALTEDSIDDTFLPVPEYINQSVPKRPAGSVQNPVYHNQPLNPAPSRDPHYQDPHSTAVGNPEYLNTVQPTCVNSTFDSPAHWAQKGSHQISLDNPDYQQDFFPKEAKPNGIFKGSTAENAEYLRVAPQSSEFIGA

| SMILES | IC50 [1] [nM] | IC50 [2] [nM] | IC50 [3, 5] [nM] | IC50 [4, 6] [nM] | IC50 [3, 7] [nM] | IC50 [4, 8] [nM] |
| --- | --- | --- | --- | --- | --- | --- |
| Cc1c(Cl)cccc1Nc1c(-c2ccncc2OC[C@]2(C)CCO2)[nH]c2c1C(=O)NCC2 (single isomer, unassigned) [Example 82, (+)-3-(3-chloro-2-methylanilino)-2-(3-{[2-methyloxetan-2-yl]methoxy}pyridin-4-yl)-1,5,6,7-tetrahydro-4H-pyrrolo[3,2-c]pyridin-4-one] | 0.134 | 5980 | 34.8 | 673 | – | – |
| Cc1cccc(Nc2c(-c3ccncc3OCC3(C)CCO3)[nH]c3c2C(=O)NCC3)c1Cl (single isomer, unassigned; (+)) [Example 56, (+)-3-(2-chloro-3-methylanilino)-2-{3-[(2-methyloxetan-2-yl)methoxy]pyridin-4-yl}-1,5,6,7-tetrahydro-4H-pyrrolo[3,2-c]pyridin-4-one] | 0.15 | 16100 | – | – | 35.1 | 489 |
| Cc1c(F)cccc1Nc1c(-c2ccncc2OCC2(C)CCO2)[nH]c2c1C(=O)NCC2 (single isomer, unassigned; (+)) [Example 85, (+)-3-(3-fluoro-2-methylanilino)-2-(3-{[2-methyloxetan-2-yl]methoxy}pyridin-4-yl)-1,5,6,7-tetrahydro-4H-pyrrolo[3,2-c]pyridin-4-one] | 0.107 | 15800 | – | – | 43.7 | 1260 |
| Cc1cccc(Nc2c(-c3ccncc3OCC3(C)CCO3)[nH]c3c2C(=O)NCC3)c1Cl (single isomer, unassigned; (-)) [Example 57, (−)-3-(2-chloro-3-methylanilino)-2-{3-[(2-methyloxetan-2-yl)methoxy]pyridin-4-yl}-1,5,6,7-tetrahydro-4H-pyrrolo[3,2-c]pyridin-4-one] | 0.264 | 13000 | – | – | 402 | 3250 |
| Cc1c(Cl)cccc1Nc1c(-c2ccncc2OCC2(C)CCO2)[nH]c2c1C(=O)NCC2 (single isomer, unassigned; (-)) [Example 81, (−)-3-(3-chloro-2-methylanilino)-2-(3-{[2-methyloxetan-2-yl]methoxy}pyridin-4-yl)-1,5,6,7-tetrahydro-4H-pyrrolo[3,2-c]pyridin-4-one] | 0.129 | 5050 | 96.4 | 664 | – | – |
| Cc1c(F)cccc1Nc1c(-c2ccncc2OCC2(C)CCO2)[nH]c2c1C(=O)NCC2 (single isomer, unassigned; (-)) [Example 84, (−)-3-(3-fluoro-2-methylanilino)-2-(3-{[2-methyloxetan-2-yl]methoxy}pyridin-4-yl)-1,5,6,7-tetrahydro-4H-pyrrolo[3,2-c]pyridin-4-one] | 0.156 | 14900 | – | 1290 | 306 | – |
| O=C1NCCc2[nH]c(-c3ccncc3OCC3COC3)c(Nc3cccc(F)c3Cl)c21 [Example 16, 3-(2-chloro-3-fluoroanilino)-2-{3-[(oxetan-3-yl)methoxy]pyridin-4-yl}-1,5,6,7-tetrahydro-4H-pyrrolo[3,2-c]pyridin-4-one] | 0.0988 | 13900 | 193 | 1140 | – | – |
| CCC1(COc2cnccc2-c2[nH]c3c(c2Nc2cccc(Cl)c2C)C(=O)NCC3)COC1 [Example 23, 3-(3-chloro-2-methylanilino)-2-{3-[(3-ethyloxetan-3-yl)methoxy]pyridin-4-yl}-1,5,6,7-tetrahydro-4H-pyrrolo[3,2-c]pyridin-4-one] | 0.96 | > 5710 | 190 | 3380 | – | – |
| CCc1c(Cl)cccc1Nc1c(-c2ccncc2OCC2(C)CCO2)[nH]c2c1C(=O)NCC2 (centres unmarked) [Example 78, 3-(3-chloro-2-ethylanilino)-2-(3-{[2-methyloxetan-2-yl]methoxy}pyridin-4-yl)-1,5,6,7-tetrahydro-4H-pyrrolo[3,2-c]pyridin-4-one] | 0.267 | 2800 | 30.4 | 698 | – | – |
| CCC1(COc2cnccc2-c2[nH]c3c(c2Nc2cccc(C)c2Cl)C(=O)NCC3)COC1 [Example 86, 3-(2-chloro-3-methylanilino)-2-{3-[(3-ethyloxetan-3-yl)methoxy]pyridin-4-yl}-1,5,6,7-tetrahydro-4H-pyrrolo[3,2-c]pyridin-4-one] | 0.187 | > 5700 | 255 | 899 | – | – |
| CCC1(COc2cnccc2-c2[nH]c3c(c2Nc2cccc(F)c2OC)C(=O)NCC3)COC1 [Example 88, 2-{3-[(3-ethyloxetan-3-yl)methoxy]pyridin-4-yl}-3-(3-fluoro-2-methoxyanilino)-1,5,6,7-tetrahydro-4H-pyrrolo[3,2-c]pyridin-4-one] | 0.0873 | 7490 | 66.8 | 1130 | – | – |
